Values of other authors, collected in patent US9326991B2, “Nucleotide prodrug compounds and use” (LIGAND PHARMACEUTICALS INC., priority 2012, dated 2016).

Settings: human subjects

half-life: ~12 days
Compound: NC(=O)c1ncn([C@@H]2O[C@H](CO)[C@@H](O)[C@H]2O)n1 [Ribavirin, 1-((2R,3R,4S,5R)-3,4-dihydroxy-5-(hydroxymethyl)oxolan-2-yl)-1H-1,2,4-triazole-3-carboxamide]
